System: TRZAX Triticum aestivum (Soft wheat)
Assay: Ipfencarbazone biostimulant effect, early post emergence foliar application, greenhouse pots, plant height: wheat
Type: in vivo
Text: The original objective of this Example was to evaluate the herbicidal effect of ipfencarbazone when applied as a post emergent treatment to a range of selected crops and weeds. Unexpectedly, crop plant growth stimulation was observed. The actual species of weeds and crops are listed in the summary data tabulated below and in FIGS. 1-13. By convention each plant species has a Bayer code (5-letter name) with the scientific name for the plant referenced in FIGS. 1-13. In each Figure, each tray contains the same configuration of weeds and/or crops. In each Figure there is one replication of each treatment (six treatments in total). The top three photographs in each Figure show the Bayer Codes and bottom three photographs are aligned with the top three facilitating viewing of the same plant species. Throughout the Examples various abbreviations as conventional shorthand notation and will be appreciated by those skilled in the art. Some exemplary abbreviations include, “CV”=Co-efficient of Variation,” “LSD”=Least Significant Difference” (G/L (gram per L) AND GA/L (gram of active ingredient per L); “SC”=suspension concentrate formulation. The diluent in all treatments was water. By convention factors that are identical in all treatments (e.g. diluent and surfactant) are not listed in each treatment.
Methods: The indicated size pots (see Tables below) are filled with a specific soil, the soil properties being indicated below. The referenced crops and weeds are planted by hand in each pot. […] The experiments include six treatments each replicated three times on each crop/weed species. At a specific time after emergence each crop and weed species was treated with ipfencarbazone plus a non-ionic surfactant (NIS). In the present Example, the surfactant employed was ENERGIC™ (non-ionic surfactant). The application timing is indicated in each of the Tables (1 or 2 leaf stage) below. Ipfencarbazone plus surfactant was diluted in water and applied at a rate equivalent to about 250 L/ha. Ipfencarbazone was applied using a track sprayer. After treatment, the pots were randomized in a greenhouse. At each assessment (indicated by “days after treatment” or DAT) the height of each plant was measured. The letters next to each mean indicate the level of statistical significance.
Replications: 3, Untreated treatments: 1, Design: Randomized Complete Block (RCB), Treatment units: Treated ‘Plot’ experimental unit size, Dry Form. Unit: %, Treated ‘Plot’ experimental unit size Width: 1 meter, Treated ‘Plot’ experimental unit size Length: 1.4 meters, Application volume: 250 L/ha, Mix size: 0.15 liters, […]

[1] = TRZAX BRS327, 125 g ai/ha, 28 DA-A
[2] = TRZAX BRS327, 250 g ai/ha, 15 DA-A
[3] = TRZAX BRS327, 250 g ai/ha, 28 DA-A
[4] = TRZAX BRS327, 500 g ai/ha, 15 DA-A
[5] = TRZAX BRS327, 500 g ai/ha, 28 DA-A
[6] = TRZAX BRS327, 1000 g ai/ha, 15 DA-A
[7] = TRZAX BRS327, 1000 g ai/ha, 28 DA-A
[8] = TRZAX Iguaçú, 62.5 g ai/ha, 15 DA-A
[9] = TRZAX Iguaçú, 62.5 g ai/ha, 28 DA-A
[10] = TRZAX Iguaçú, 125 g ai/ha, 15 DA-A
[11] = TRZAX Iguaçú, 125 g ai/ha, 28 DA-A
[12] = TRZAX Iguaçú, 250 g ai/ha, 15 DA-A
[13] = TRZAX Iguaçú, 250 g ai/ha, 28 DA-A
[14] = TRZAX Iguaçú, 500 g ai/ha, 15 DA-A
[15] = TRZAX Iguaçú, 500 g ai/ha, 28 DA-A
[16] = TRZAX Iguaçú, 1000 g ai/ha, 15 DA-A
[17] = TRZAX Iguaçú, 1000 g ai/ha, 28 DA-A
[18] = TRZAX Itaipú, 62.5 g ai/ha, 15 DA-A
[19] = TRZAX Itaipú, 62.5 g ai/ha, 28 DA-A
[20] = TRZAX Itaipú, 125 g ai/ha, 15 DA-A
[21] = TRZAX Itaipú, 125 g ai/ha, 28 DA-A
[22] = TRZAX Itaipú, 250 g ai/ha, 15 DA-A
[23] = TRZAX Itaipú, 250 g ai/ha, 28 DA-A
[24] = TRZAX Itaipú, 500 g ai/ha, 15 DA-A
[25] = TRZAX Itaipú, 500 g ai/ha, 28 DA-A
[26] = TRZAX Itaipú, 1000 g ai/ha, 15 DA-A
[27] = TRZAX Itaipú, 1000 g ai/ha, 28 DA-A

Question: With `CC(C)N(C(=O)n1cnn(-c2ccc(Cl)cc2Cl)c1=O)c1ccc(F)cc1F` [ARY-0572-001, ipfencarbazone] as the compound, how does the “HEIGHT, treatment mean” value (TRZAX BRS327, 125 g ai/ha, 15 DA-A) read?
Answer: 27.6 a cm

Question: What about the “HEIGHT, percent of untreated check (APoC)” value (shortened to “HEIGHT, percent”) [1] of the same compound?
Answer: (156.7%)

Question: And the “HEIGHT, treatment mean” value [1]?
Answer: 35.0 a cm

Question: What about the “HEIGHT, percent” value [2] of the same compound?
Answer: (171.4%)

Question: And the “HEIGHT, treatment mean” value [2]?
Answer: 32.0 a cm

Question: And the “HEIGHT, percent” value [3]?
Answer: (204.0%)

Question: What about the “HEIGHT, treatment mean” value [3] of the same compound?
Answer: 45.6 a cm

Question: What about the “HEIGHT, percent” value [4] of the same compound?
Answer: (130.7%)

Question: And the “HEIGHT, treatment mean” value [4]?
Answer: 24.4 a cm

Question: What about the “HEIGHT, percent” value [5] of the same compound?
Answer: (141.3%)

Question: What about the “HEIGHT, treatment mean” value [5] of the same compound?
Answer: 31.6 a cm

Question: And the “HEIGHT, percent” value [6]?
Answer: (92.9%)

Question: What about the “HEIGHT, treatment mean” value [6] of the same compound?
Answer: 17.3 a cm

Question: What about the “HEIGHT, percent” value [7] of the same compound?
Answer: (126.4%)

Question: What about the “HEIGHT, treatment mean” value [7] of the same compound?
Answer: 28.2 a cm

Question: What about the “HEIGHT, percent” value [8] of the same compound?
Answer: (158.8%)

Question: What about the “HEIGHT, treatment mean” value [8] of the same compound?
Answer: 24.6 a cm

Question: And the “HEIGHT, percent” value [9]?
Answer: (129.6%)

Question: And the “HEIGHT, treatment mean” value [9]?
Answer: 29.2 bc cm

Question: What about the “HEIGHT, percent” value [10] of the same compound?
Answer: (168.5%)

Question: What about the “HEIGHT, treatment mean” value [10] of the same compound?
Answer: 26.1 a cm

Question: And the “HEIGHT, percent” value [11]?
Answer: (133.5%)

Question: And the “HEIGHT, treatment mean” value [11]?
Answer: 30.1 be cm

Question: And the “HEIGHT, percent” value [12]?
Answer: (193.2%)

Question: And the “HEIGHT, treatment mean” value [12]?
Answer: 29.9 a cm

Question: And the “HEIGHT, percent” value [13]?
Answer: (192.1%)

Question: And the “HEIGHT, treatment mean” value [13]?
Answer: 43.3 a cm

Question: What about the “HEIGHT, percent” value [14] of the same compound?
Answer: (153.4%)

Question: And the “HEIGHT, treatment mean” value [14]?
Answer: 23.8 ab cm

Question: What about the “HEIGHT, percent” value [15] of the same compound?
Answer: (163.1%)

Question: What about the “HEIGHT, treatment mean” value [15] of the same compound?
Answer: 36.8 ab cm

Question: And the “HEIGHT, percent” value [16]?
Answer: (105.4%)

Question: And the “HEIGHT, treatment mean” value [16]?
Answer: 16.3 bc cm

Question: What about the “HEIGHT, percent” value [17] of the same compound?
Answer: (82.8%)

Question: What about the “HEIGHT, treatment mean” value [17] of the same compound?
Answer: 18.7 c cm

Question: What about the “HEIGHT, percent” value [18] of the same compound?
Answer: (169.2%)

Question: And the “HEIGHT, treatment mean” value [18]?
Answer: 23.8 abc cm

Question: What about the “HEIGHT, percent” value [19] of the same compound?
Answer: (154.6%)

Question: What about the “HEIGHT, treatment mean” value [19] of the same compound?
Answer: 37.1 a cm

Question: And the “HEIGHT, percent” value [20]?
Answer: (181.4%)

Question: And the “HEIGHT, treatment mean” value [20]?
Answer: 25.5 ab cm

Question: And the “HEIGHT, percent” value [21]?
Answer: (134.7%)

Question: What about the “HEIGHT, treatment mean” value [21] of the same compound?
Answer: 32.3 a cm

Question: What about the “HEIGHT, percent” value [22] of the same compound?
Answer: (223.7%)

Question: What about the “HEIGHT, treatment mean” value [22] of the same compound?
Answer: 31.4 a cm

Question: What about the “HEIGHT, percent” value [23] of the same compound?
Answer: (199.1%)

Question: What about the “HEIGHT, treatment mean” value [23] of the same compound?
Answer: 47.8 a cm

Question: And the “HEIGHT, percent” value [24]?
Answer: (157.7%)

Question: And the “HEIGHT, treatment mean” value [24]?
Answer: 22.2 abc cm

Question: And the “HEIGHT, percent” value [25]?
Answer: (100.0%)

Question: What about the “HEIGHT, treatment mean” value [25] of the same compound?
Answer: 24.0 a cm

Question: What about the “HEIGHT, percent” value [26] of the same compound?
Answer: (111.5%)

Question: And the “HEIGHT, treatment mean” value [26]?
Answer: 15.7 bc cm

Question: And the “HEIGHT, percent” value [27]?
Answer: (76.9%)

Question: And the “HEIGHT, treatment mean” value [27]?
Answer: 18.4 a cm

— patent US20170318812A1, “Plant and Crop Growth Regulating/Biostimulant Formulations and Methods of Use” (Arysta Lifescience North America, LLC, priority 2014, published 2017)
